The target of one assay is prion protein (Homo sapiens, UniProt P04156).
The subject of a further assay is 263K prion infectivity. Also on record: species or system Tg(SHaPrP) mice. The following applies: mouse, in vivo.
For assay [1], the target named is T1, AA-related moieties (serum amyloid A aggregates) (Mus musculus, UniProt P05367).
T1 construct: These experiments indicate that PSR1-coated beads can capture AA-related moieties; from tissue; host or cells: spleen homogenate of mice with induced AA amyloidosis
T1 sequence (P05367 20-94 limits assumed): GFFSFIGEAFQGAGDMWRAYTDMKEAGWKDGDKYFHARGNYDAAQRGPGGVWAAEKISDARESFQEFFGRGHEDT
Briefly: PSR-1 bead-based capture of AA species from spleen homogenates. It is filed as binding. On the procedure:
Amyloid enhancing factor (AEF) was extracted from amyloid-laden liver as described earlier, and used for amyloid induction in four different groups of mice. Each mouse received 20 ug of protein extract as an intravenous injection in the tail vein and systemic inflammation was stimulated by concomitant subcutaneous injection of 0.2 ml 1% silver nitrate (AgNO3). Further inflammatory stimuli were given once a week on day 7, 14 and 21. Mice were sacrificed in several time points on day 5, 9, 16 and 23. Control mice received only single silver nitrate injection and were sacrificed 16 hrs later.
10% spleen homogenates were prepared in PBS, […], using an ultra-sound tissue homogenizator. Homogenates were centrifuged at 200×g for 1 min and the supernatants were used for the PSR1 bead-based capture assay. For immunoblotting analysis the PBS-insoluble tissue pellet was solubilised in 8M urea for 24 hrs on a wheel at room temperature.
PSR1-conjugated beads were washed two times with 1 ml of TBS-TT (TBS, 1% TritonX, 1% Tween20) before incubation with 10% spleen homogenate in a total volume of 100 μl TBS-TT for 1 hr at 37° C. and under shaking at 750 rpm. […] 150 ul of eluate was aspirated from the beads and the presence of SAA/AA proteins were analysed using the mouse SAA ELISA from Tridelta Ltd. or by immunoblotting. […]

In another assay the target is amylin fibrils (Homo sapiens, UniProt P10997). Kind of assay: MPA of in vitro synthesized amylin. The settings on record: buffer and plasma; FIG. 45. In kind it is binding.
Sequence of amylin fibrils (P10997 34-70 limits assumed): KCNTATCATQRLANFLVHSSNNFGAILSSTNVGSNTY

“And” between values parts separate entries of the source, which are not always exact repeats. Equal values may be shown once.

Here are results for one substance from US20130109581A1, “POSITIVELY CHARGED SPECIES AS BINDING REAGENTS IN THE SEPARATION OF PROTEIN AGGREGATES FROM MONOMERS” (priority 2009, published 2013).

As for Nab-Nab-Nab-Nbn-Nab-Nbn [PSR1], at prion protein, the “distinguishing control and vCJD brain homogenates, prion protein detected” value is “clearly distinguished between control and either vCJD or AD samples”. Also, in the assay on 263K prion infectivity, the “125 μl pooled plasma corresponds to 30 μl of a dilution of 263 K hamster brain homogenate” value is 10^−8 dilution of 263 K and 10^−7 dilution of 263 K; the “Attack rate (Clinical TSE/total inoculated)” value was 100% (8/8) and 50% (2/4) and 100% (4/4) and 81% (13/16); the “Mean incubation period (days)” value is 74 ± 3 dpi and 76 ± 5 dpi and 94 ± 5 dpi; the “capture and transmission of prion infectivity” value is “capture prion infectivity from prion-infected blood samples and transmit it with high efficiency to Tg(SHaPrP) mice”. In the assay with 263K prion infectivity, the “incubation period (days)” value is 56, 85 days and the mean incubation times was 74-94 days post inoculation. Also, the “SAA detected in eluates (sandwich ELISA)” value in assay [1] (3 uL PSR1 beads, spleen homogenate with splenic AA vs untreated control) is “SAA could be detected only in the eluates from the AA-containing sample”. In assay [1] (denatured, buffered and undenatured AA-containing samples, FIG. 44), the “SAA detected in eluates after denaturation of input” value is given as “SAA could be detected only in the eluates from undenatured or buffered AA-containing samples”. At amylin fibrils, the “binding to amylin fibrils over monomers” value is “bind preferentially to in vitro-synthesized amylin fibrils over amylin monomers in both buffer (A) and plasma (B)”.
